Experiments:
Format in all cases: cell-based, human
[1] = tested on: CD4+ clone 436/B6.37 (B6/37); experiment: IFN-γ/TNF production by CD4+ clone B6/37 (clone 37) stimulated with peptide- or protein-pulsed EBV-B cells; details: for IFN-γ production by clone 37: autologous LB 1555 EBV-B cells; for IFN-γ production by clone B6/37, truncated peptides: autologous EBV-B cells pulsed with truncated peptides (FIG. 8)
Experimental: The microcultures that contained proliferating CD4^+ T cells were assessed around 35 days after the start of the culture for their capacity to produce TNF and/or IFN-γ when stimulated with autologous EBV-B cells pulsed with the His-MAGE-A3 protein. Autologous EBV-B cells (500,000/ml) were incubated for 18-20 hours at 37° C. in the presence of 20 μg/ml of His-MAGE-A3 protein, or Ovalbumin (Sigma) as a negative control. EBV-B cells referred to herein are B cells which were immortalized with Epstein Barr virus. The EBV-B cells were prepared according to art-standard procedures. Protein-pulsed EBV-B cells were washed and added at 5,000 per round-bottomed microwell to 2,500 CD4^+ T lymphocytes in 150 μl of complete Iscove's medium supplemented with L-glutamine, L-arginine, L-asparagine, 10% human serum and IL-2 (25 U/ml). After 18-20 hours, supernatants were harvested and assessed for TNF content by testing the cytotoxic effect of the supernatants on TNF-sensitive WEHI 164 clone 13 cells as previously described (Espevik and Nissen-Meyer, J. Immunol. Methods 95:99-105, 1986) in a MTT colorimetric assay as previously described (Hansen et al., J. Immunol. Methods 119:203-210, 1989; Traversari et al., Immunogenetics 35:145-152, 1992). IFN-γ production was measured using an ELISA assay developed in our laboratory (see below) with reagents from Medgenix Diagnostics-Biosource (Fleurus, Belgium). Inhibition with mAbs W6/32 (anti-HLA class I) or 2B6 (anti-HLA-DR) was performed by addition of a 1/20 dilution of ascites during the experiment. Cytokine secretion in response to autologous EBV-B cells pulsed with MAGE-A3 was considered significant if it was at least twofold above the background response of T cells to EBV-B cells pulsed with ovalbumin, and if it exceeded 500 pg of IFN-γ or 50 pg/ml of TNF per ml.
In order to identify the MAGE-A3 peptides recognized by these CD4^+ clones, 16 amino acid peptides, corresponding to parts of the MAGE-A3 protein sequence were synthesized, loaded on the autologous EBV-B cells and tested for recognition (FIGS. 4 and 5). Peptides were synthesized using F-moc for transient NH2-terminal protection and were characterized using mass spectrometry. […] Lyophilized synthetic peptides were dissolved in DMSO (Merck) and used at a final concentration of 500 μM, 50 μM or 5 μg/ml. EBV-B cells (5,000 per round-bottomed microwell) were incubated 2 hours at 37° C., 8% CO2 in the presence of the different peptides, the indicated concentrations representing the peptide concentration during the incubation step. CD4^+ clones were then added at 2,500 cells per well. Assay medium was Iscove's medium supplemented with L-glutamine, L-arginine, L-asparagine, 10% human serum and IL-2 (25 U/ml). After 18-20 hours, supernatants were harvested and assessed for TNF-α and/or IFN-γ secretion. IFN-γ production was measured using an ELISA test (20-4000 pg/ml) developed in the laboratory with reagents from Medgenix Diagnostics-Biosource (Fleurus, Belgium).
To further define the HLA-restriction element utilized by clone B6/37, additional EBV-B cell lines were used for peptide presentation as described above (FIG. 7).
(§1) Unlike HLA-class I-restricted peptides, class II-restricted peptides usually vary in length and tolerate extensions at both the amino and carboxy termini, because they are not fixed by their ends in the groove. It is therefore difficult to define precisely the length of the antigenic peptide. Therefore a large number of MAGE-A3 peptides were tested at different concentrations (Tables IV and V). […] 2500 cells of clone 37 were then cocultured for 20 h in round-bottomed microwells with 5000 peptide-pulsed cells. IFN-γ released in the supernatant of the cocultures was measured in an ELISA assay. The experiments were performed in triplicate.

LB1158 CD4+ clone 22 = experiment: IFN-γ production by CD4+ clone 22 stimulated with peptide- or protein-pulsed EBV-B cells; details: HLA-DR13 EBV-B cells
Experimental: (§2) In order to confirm the efficacy of this protocol, dendritic cells were fed with the MAGE-3 protein, using conditions described above, to stimulate autologous CD4^+ T lymphocytes from hemochromatosis patient LB1158 or from melanoma patient 7002. After four restimulations, the specific production of IFN-γ by an aliquot of each of the microcultures stimulated with the autologous EBV-B cells loaded with MAGE-A3 were tested on day 35 for patient LB1158 and day 37 for patient 7002. For each individual, one positive microculture was cloned using autologous EBV-B cells as stimulating cells, either retrotransduced with MFG Ii MAGE-A3 for LB1158, or fed with protein MAGE-A3 for patient 7002. […] Specifically, autologous EBV-B cells were incubated for 20 h in the presence of 20 μg/ml of recombinant His-MAGE-A3 protein. Clone 22 (2500 cells) was incubated overnight with 5000 MAGE-A3 loaded EBV-B cells in round botton microwells in the presence or absence of monoclonal antibodies which recognize HLA-A,B,C (W6/32) or HLA-DR (2B6). IFN-γ secretion was measured after 20 h by ELISA (FIG. 15A).
(§3) Peptides corresponding to parts of MAGE-A3 (e.g., MAGE107-122, MAGE111-126, MAGE115-130, MAGE119-134) were tested for recognition by clone 2 and 22. HLA-DR13 EBV-B cells were pulsed for 2 h with different concentrations of these peptides. Clones 2 and 37 (2500 cells) were incubated with 5000 peptide pulsed cells in round-bottomed microwells for 20 h and assayed for IFN-γ production.
(§4) Autologous or allogeneic EBV-B cells were pulsed for 2 h with 1 μg/ml MAGE-A3119-134 peptide, and then washed. Clones 2 or 22 were incubated with 5000 peptide-pulsed EBV-B cells in round-bottomed microwells for 20 h and the clones' reactivity to the EBV-B cells was measured by ELISA as IFN-γ secretion. Experiments were performed in triplicate.
as §1, with “triplicate. […] Clones 2 and 22 (2500 cells) were then cocultured for 20 h in round-bottomed microwells with 5000 peptide-pulsed cells. IFN-γ released in the supernatant of the cocultures was measured in an ELISA assay. The experiments was performed twice in duplicates.” for “triplicate.”

7002 CD4+ clone 2 = experiment: IFN-γ production by CD4+ clone 2 stimulated with peptide- or protein-pulsed EBV-B cells; details: HLA-DR13 EBV-B cells
Experimental: as §2, §3, §4
as §1, with “triplicate. […] Clones 2 and 22 (2500 cells) were then cocultured for 20 h in round-bottomed microwells with 5000 peptide-pulsed cells. IFN-γ released in the supernatant of the cocultures was measured in an ELISA assay. The experiments was performed twice in duplicates.” for “triplicate.”

[2] = peptide concentration 100 ng/ml
[3] = peptide concentration 300 ng/ml
[4] = peptide concentration 1000 ng/ml

Substance | IFN-γ production by clone 37 ([1]; peptide concentration 1 ng/ml) | IFN-γ production by clone 37 ([1]; peptide concentration 3 ng/ml) | IFN-γ production by clone 37 ([1]; peptide concentration 10 ng/ml) | IFN-γ production by clone 37 ([1]; peptide concentration 30 ng/ml) | IFN-γ production by clone 37 [1, 2] | IFN-γ production by clone 37 [1, 3] | IFN-γ production by clone 37 [1, 4] | further results
AELVHFLLLKYRA (listed as Homo sapiens) | 134 pg/mL | 139 pg/mL | 620 pg/mL | 2523 pg/mL | >4000 pg/mL | >4000 pg/mL | >4000 pg/mL | –
AELVHFLLLKYRAR (listed as Homo sapiens) | 151 pg/mL | 272 pg/mL | 802 pg/mL | 2862 pg/mL | >4000 pg/mL | >4000 pg/mL | >4000 pg/mL | recognition of short peptide by clone 37 ([1]; conclusion from Table IV): well recognized
AELVHFLLLKYRARE (listed as Homo sapiens) | 38 pg/mL | 230 pg/mL | 235 pg/mL | 1473 pg/mL | 3837 pg/mL | >4000 pg/mL | >4000 pg/mL | –
ELVHFLLLKYRA (listed as Homo sapiens) [MAGE-A3115-126] | – | – | – | – | – | – | – | IFN-γ production by clone B6/37, truncated peptides [1]: induced significant production
ELVHFLLLKYRAR (listed as Homo sapiens) | 47 pg/mL | 192 pg/mL | 333 pg/mL | 1899 pg/mL | 3633 pg/mL | >4000 pg/mL | >4000 pg/mL | –
ELVHFLLLKYRARE (listed as Homo sapiens) | 25 pg/mL | 160 pg/mL | 166 pg/mL | 1087 pg/mL | 3095 pg/mL | >4000 pg/mL | >4000 pg/mL | –
FLLLKYRAREP (listed as Homo sapiens) | – | – | – | – | – | – | – | IFN-γ production by clone 22 (LB1158 CD4+ clone 22; peptide concentration 1 ng/ml): 0 pg/mL; IFN-γ production by clone 22 (LB1158 CD4+ clone 22; peptide concentration 3 ng/ml): 0 pg/mL; IFN-γ production by clone 22 (LB1158 CD4+ clone 22; peptide concentration 10 ng/ml): 1 pg/mL; IFN-γ production by clone 22 (LB1158 CD4+ clone 22; peptide concentration 30 ng/ml): 7 pg/mL; IFN-γ production by clone 22 (LB1158 CD4+ clone 22; [2]): 6 pg/mL; IFN-γ production by clone 22 (LB1158 CD4+ clone 22; [3]): 7 pg/mL; IFN-γ production by clone 22 (LB1158 CD4+ clone 22; [4]): 30 pg/mL; IFN-γ production by clone 2 (7002 CD4+ clone 2; peptide concentration 1 ng/ml): 0 pg/mL; IFN-γ production by clone 2 (7002 CD4+ clone 2; peptide concentration 3 ng/ml): 0 pg/mL; IFN-γ production by clone 2 (7002 CD4+ clone 2; peptide concentration 10 ng/ml): 0 pg/mL; IFN-γ production by clone 2 (7002 CD4+ clone 2; peptide concentration 30 ng/ml): 0 pg/mL; IFN-γ production by clone 2 (7002 CD4+ clone 2; [2]): 85 pg/mL; IFN-γ production by clone 2 (7002 CD4+ clone 2; [3]): 0 pg/mL; IFN-γ production by clone 2 (7002 CD4+ clone 2; [4]): 23 pg/mL
FLLLKYRAREPV (listed as Homo sapiens) | – | – | – | – | – | – | – | IFN-γ production by clone 22 (LB1158 CD4+ clone 22; peptide concentration 1 ng/ml): 0 pg/mL; IFN-γ production by clone 22 (LB1158 CD4+ clone 22; peptide concentration 3 ng/ml): 3 pg/mL; IFN-γ production by clone 22 (LB1158 CD4+ clone 22; peptide concentration 10 ng/ml): 13 pg/mL; IFN-γ production by clone 22 (LB1158 CD4+ clone 22; peptide concentration 30 ng/ml): 132 pg/mL; IFN-γ production by clone 22 (LB1158 CD4+ clone 22; [2]): 383 pg/mL; IFN-γ production by clone 22 (LB1158 CD4+ clone 22; [3]): 746 pg/mL; IFN-γ production by clone 22 (LB1158 CD4+ clone 22; [4]): 1353 pg/mL; IFN-γ production by clone 2 (7002 CD4+ clone 2; peptide concentration 1 ng/ml): 0 pg/mL; IFN-γ production by clone 2 (7002 CD4+ clone 2; peptide concentration 3 ng/ml): 4 pg/mL; IFN-γ production by clone 2 (7002 CD4+ clone 2; peptide concentration 10 ng/ml): 78 pg/mL; IFN-γ production by clone 2 (7002 CD4+ clone 2; peptide concentration 30 ng/ml): 216 pg/mL; IFN-γ production by clone 2 (7002 CD4+ clone 2; [2]): 821 pg/mL; IFN-γ production by clone 2 (7002 CD4+ clone 2; [3]): 1632 pg/mL; IFN-γ production by clone 2 (7002 CD4+ clone 2; [4]): 2667 pg/mL
MAGE-A3116-126: shortened MAGE-A3 peptide, residues 116-126 (LVHFLLLKYRA; listed as Homo sapiens) | – | – | – | – | – | – | – | IFN-γ production by clone B6/37, truncated peptides [1]: reduced amounts
MAGE-A3118-126: shortened MAGE-A3 peptide, residues 118-126 | – | – | – | – | – | – | – | IFN-γ production by clone B6/37, truncated peptides [1]: did not induce the production of significant amounts
VAELVHFLLLKYRA (listed as Homo sapiens) | 7 pg/mL | 179 pg/mL | 87 pg/mL | 648 pg/mL | 2534 pg/mL | >4000 pg/mL | >4000 pg/mL | –
VAELVHFLLLKYRAR (listed as Homo sapiens) | 146 pg/mL | 262 pg/mL | 779 pg/mL | 2963 pg/mL | >4000 pg/mL | >4000 pg/mL | >4000 pg/mL | –
VAELVHFLLLKYRARE (listed as Homo sapiens) | 30 pg/mL | 300 pg/mL | 376 pg/mL | 1647 pg/mL | >4000 pg/mL | >4000 pg/mL | >4000 pg/mL | –
VHFLLLKYRA (listed as Homo sapiens) [MAGE-A3117-126] | – | – | – | – | – | – | – | IFN-γ production by clone B6/37, truncated peptides [1]: reduced amounts
